Test results from article PMC11932207, “Regulating AMPA Receptors with Isoxazole-4-Carboxamide Derivatives: An Electrophysiological Study” (Journal of Xenobiotics, 2025).
pIC50: −log10 of the molar value. Where two headings read alike, the source gives them in different places.

Legend:
Type in all cases: cell-based
GluN1a/2B = molecular target: T1, GluN1a/2B (Homo sapiens, UniProt Q05586+Q13224); assay: Selectivity: whole-cell normalized peak current of NMDA receptor GluN1a/2B; conditions: 16 µM compound, HEK293t, −60 mV
T1 construct: expressed in transfected cells; host or cells: HEK293t cells
T1 sequence (Q13224 27-1484, other chains not shown): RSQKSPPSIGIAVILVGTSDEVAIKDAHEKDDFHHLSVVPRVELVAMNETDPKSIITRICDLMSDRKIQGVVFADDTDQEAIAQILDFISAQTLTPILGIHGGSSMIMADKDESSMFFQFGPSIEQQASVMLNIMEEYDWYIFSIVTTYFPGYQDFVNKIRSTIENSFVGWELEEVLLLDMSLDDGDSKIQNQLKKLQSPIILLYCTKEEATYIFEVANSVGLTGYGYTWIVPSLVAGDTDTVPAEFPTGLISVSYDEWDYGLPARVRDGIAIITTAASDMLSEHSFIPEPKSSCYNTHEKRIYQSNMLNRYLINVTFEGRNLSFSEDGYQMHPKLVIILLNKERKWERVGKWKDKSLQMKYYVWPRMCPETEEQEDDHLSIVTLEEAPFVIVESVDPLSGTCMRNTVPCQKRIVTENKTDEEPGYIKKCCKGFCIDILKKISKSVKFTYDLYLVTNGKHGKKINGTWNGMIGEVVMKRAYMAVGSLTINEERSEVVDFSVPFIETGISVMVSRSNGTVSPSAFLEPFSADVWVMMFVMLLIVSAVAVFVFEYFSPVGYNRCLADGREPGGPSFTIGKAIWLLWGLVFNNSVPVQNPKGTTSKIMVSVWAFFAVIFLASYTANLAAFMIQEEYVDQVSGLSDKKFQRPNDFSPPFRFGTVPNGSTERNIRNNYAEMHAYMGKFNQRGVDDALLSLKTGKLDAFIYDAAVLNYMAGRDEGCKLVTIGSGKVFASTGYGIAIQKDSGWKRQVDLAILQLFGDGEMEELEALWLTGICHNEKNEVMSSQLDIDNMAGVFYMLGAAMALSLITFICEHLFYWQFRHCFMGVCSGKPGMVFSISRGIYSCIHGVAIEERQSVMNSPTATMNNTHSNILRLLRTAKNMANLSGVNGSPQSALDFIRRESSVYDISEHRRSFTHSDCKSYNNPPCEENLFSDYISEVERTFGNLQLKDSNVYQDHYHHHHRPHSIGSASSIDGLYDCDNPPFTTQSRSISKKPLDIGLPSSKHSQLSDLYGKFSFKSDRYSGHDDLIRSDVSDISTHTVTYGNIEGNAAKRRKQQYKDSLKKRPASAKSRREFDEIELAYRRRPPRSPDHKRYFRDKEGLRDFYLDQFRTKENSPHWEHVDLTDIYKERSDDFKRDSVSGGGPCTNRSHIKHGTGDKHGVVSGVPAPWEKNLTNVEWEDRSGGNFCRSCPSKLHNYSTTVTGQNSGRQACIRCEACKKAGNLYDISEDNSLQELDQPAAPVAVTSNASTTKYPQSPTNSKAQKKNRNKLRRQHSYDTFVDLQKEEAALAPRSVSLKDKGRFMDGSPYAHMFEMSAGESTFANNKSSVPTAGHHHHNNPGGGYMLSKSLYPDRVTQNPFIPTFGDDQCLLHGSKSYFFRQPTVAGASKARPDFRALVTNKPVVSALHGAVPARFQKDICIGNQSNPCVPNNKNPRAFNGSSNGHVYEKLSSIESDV
Protocol: (§1) To evaluate the selectivity of CIC-1 and CIC-2 derivatives, their effects on GluN1a/2A and GluN1a/2B of the NMDA receptors were tested. The normalized peak current responses of the subunits alone and with CIC-1 and CIC-2 were determined (Figure 4).
(§2) Figure 4 The inhibitory actions of Isoxazole-4-carboxamide derivatives on the whole-cell currents mediated by GluA2, GluA2/3 AMPA receptor subtypes and GluN1a/2A, […] receptor subtypes. (a) represents data for CIC-1 and CIC-2 compounds. AMPA- and NMDA-induced currents (black bars) are then compared to currents recorded in the presence of 16 µM CIC compounds (white bars). Panels (b–e) show representative traces of whole-cell current responses to a 1 ms administration of 10 mM glutamate for the subunits. The traces show normalized responses for glutamate alone (black) and glutamate in combination with CIC compounds (color-coded). The recording was performed in HEK293t cells at −60 mV, pH 7.4, and 22 °C. Data present mean ± SD from 3–4 different experiments. *** p < 0.001; and “ns” indicates not significant.

GluA2 = molecular target: T2, GluA2 (Rattus norvegicus, UniProt P19491); assay: Whole-cell patch clamp recordings of homomeric GluA2 AMPA receptor currents and kinetics in transfected HEK293t cells
T2 construct: expressed in transfected cells; host or cells: HEK293T (HEK293) cells, transient co-transfection with a separate EGFP vector
T2 sequence (P19491 22-883 isoform P19491-2 limits assumed): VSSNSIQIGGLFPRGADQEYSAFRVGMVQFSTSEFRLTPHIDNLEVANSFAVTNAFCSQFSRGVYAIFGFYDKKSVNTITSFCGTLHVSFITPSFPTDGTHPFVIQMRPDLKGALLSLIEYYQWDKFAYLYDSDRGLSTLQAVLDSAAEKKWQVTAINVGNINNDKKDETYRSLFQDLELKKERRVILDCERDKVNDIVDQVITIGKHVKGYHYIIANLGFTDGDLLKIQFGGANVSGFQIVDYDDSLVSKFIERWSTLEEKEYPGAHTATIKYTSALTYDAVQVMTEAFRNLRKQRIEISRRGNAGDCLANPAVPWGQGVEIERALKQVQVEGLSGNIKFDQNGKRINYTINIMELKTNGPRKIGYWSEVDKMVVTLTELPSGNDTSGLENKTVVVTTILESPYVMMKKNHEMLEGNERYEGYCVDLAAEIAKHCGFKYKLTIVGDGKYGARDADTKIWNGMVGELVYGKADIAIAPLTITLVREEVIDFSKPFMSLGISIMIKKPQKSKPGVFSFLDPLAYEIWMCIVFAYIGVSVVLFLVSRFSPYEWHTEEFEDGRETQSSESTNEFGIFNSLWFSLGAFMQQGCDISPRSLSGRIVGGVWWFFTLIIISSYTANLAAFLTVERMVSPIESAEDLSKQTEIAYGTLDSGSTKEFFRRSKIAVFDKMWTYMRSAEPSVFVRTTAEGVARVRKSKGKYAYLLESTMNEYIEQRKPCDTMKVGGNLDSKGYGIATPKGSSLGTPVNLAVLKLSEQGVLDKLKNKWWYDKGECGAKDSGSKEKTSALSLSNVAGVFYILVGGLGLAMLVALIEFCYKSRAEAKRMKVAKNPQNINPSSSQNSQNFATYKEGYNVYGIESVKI
Text: (§3) The AMPA receptor subunits utilized in this study were of the flip isoform. The flip variant of the GluA2 subunit was originally provided by S. F. Heinemann (Salk Institute, La Jolla, CA, USA) in a pBlueScript plasmid. This plasmid was subsequently sub-cloned into a pRK vector to enable expression in HEK293 cells, which were sourced from Sigma, Germany. Additionally, the unedited version of GluA2 (R607Qjj, flip isoform) and enhanced green fluorescent protein (EGFP), both contained in pRK5 vectors, were generously supplied by P. H. Seeburg (Max Planck Institute for Medical Research, Heidelberg, Germany). Chemical-mediated ways induced transfection. GluA2 homomers were expressed into HEK293 cells by the co-transfection of 1 μg GluA2 plasmid with an equal amount of GFP expression vectors (1:1 ratio) into the cells. In addition, co-transfection was conducted for heteromeric GluA2/3 subunits at a ratio of 1:1.2 for optimum expression. For post-transfection experiments, cells were plated in 10% fetal calf serum and antibiotics in DMEM in Petri plates. These cultures were maintained under carefully controlled conditions—37 °C and 5% CO2 within a humidified incubator. The selection of cells for recordings was based on fluorescence intensity. Highly GFP-positive cells were identified and isolated for further analysis, ensuring precise targeting of transfected populations.
(§4) Whole-cell patch clamp recordings were performed on HEK293t cells 36–48 h after transfection. Experiments were conducted at 22 °C, maintaining a holding potential of −60 mV, using an Integrated Patch Amplifier (IPA) from Sutter Instruments (Novato, CA, USA). Data acquisition was managed with SutterPatch Software v. 1.1.1 (Sutter Instruments), employing a sampling rate of 10 kHz and setting the low-pass filter at 2 kHz. […] The external solution contained 150 mM NaCl, 2.8 mM KCl, 0.5 mM MgCl2, 2 mM CaCl2, and 10 mM HEPES, adjusted to a pH of 7.4 using NaOH. The internal pipette solution was composed of 110 mM CsF, 30 mM CsCl, 4 mM NaCl, 0.5 mM CaCl2, 10 mM trypsin-EDTA solution B (0.25%), 0.05% EDTA, and 10 mM HEPES, with the pH adjusted to 7.2 using CsOH.
(§5) A dual-barrel glass pipette (theta tube) was employed for the rapid delivery of glutamate and other solutions. The theta tube was attached to a high-speed piezoelectric solution exchange system (Automate Scientific, Berkeley, CA, USA). To assess the efficiency of solution exchange, open-tip potentials were measured by applying solutions with different ionic compositions after the patch was expelled from the pipette. The time required for a 10–90% change in the solution was generally less than […].
(§6) Data analysis was performed with Igor Pro8.04 software (Wave Metrics, Inc., Portland, OR, USA). AMPA receptor deactivation and desensitization kinetics were measured by applying 10 mM glutamate for 1 ms and 500 ms, respectively. The currents from the AMPA receptor were fitted to a double-exponential model to quantify deactivation and desensitization time constants measured from the double-exponential fits. The weighted tau (τw) is calculated as: τw = (τf × af) + (τs × as), where τf and τs are the time constants of fast and slow exponential components and af and as represent their relative amplitudes.
(§7) Data are presented as the mean ± standard deviation (SD). The total number of HEK293 cells engaged was n = 10. The experimental groups were compared to the wild type using a one-way analysis of variance (ANOVA). Statistical significance was assessed using p values: p < 0.05 (*) indicated significance, p < 0.01 (**) indicated high significance, and p < 0.001 (***) indicated very high significance. The value “ns” indicates non-significance. Concentration–response relationships were modeled using the Hill equation with the resulting combined plots via GraphPad Prism software (version 6.01, GraphPad Software). The data presented are the means from 3–4 experimental replicates. […]

GluA2/3 = molecular target: T3, GluA2/3 (UniProt P19491+P42263); assay: Whole-cell patch clamp recordings of heteromeric GluA2/3 AMPA receptor currents and kinetics in transfected HEK293t cells
T3 construct: expressed in transfected cells; host or cells: HEK293T (HEK293) cells, transient co-transfection
T3 sequence (P19491 22-883 isoform P19491-2 limits assumed): as above
T3 sequence (P42263 29-894 isoform P42263-2 limits assumed): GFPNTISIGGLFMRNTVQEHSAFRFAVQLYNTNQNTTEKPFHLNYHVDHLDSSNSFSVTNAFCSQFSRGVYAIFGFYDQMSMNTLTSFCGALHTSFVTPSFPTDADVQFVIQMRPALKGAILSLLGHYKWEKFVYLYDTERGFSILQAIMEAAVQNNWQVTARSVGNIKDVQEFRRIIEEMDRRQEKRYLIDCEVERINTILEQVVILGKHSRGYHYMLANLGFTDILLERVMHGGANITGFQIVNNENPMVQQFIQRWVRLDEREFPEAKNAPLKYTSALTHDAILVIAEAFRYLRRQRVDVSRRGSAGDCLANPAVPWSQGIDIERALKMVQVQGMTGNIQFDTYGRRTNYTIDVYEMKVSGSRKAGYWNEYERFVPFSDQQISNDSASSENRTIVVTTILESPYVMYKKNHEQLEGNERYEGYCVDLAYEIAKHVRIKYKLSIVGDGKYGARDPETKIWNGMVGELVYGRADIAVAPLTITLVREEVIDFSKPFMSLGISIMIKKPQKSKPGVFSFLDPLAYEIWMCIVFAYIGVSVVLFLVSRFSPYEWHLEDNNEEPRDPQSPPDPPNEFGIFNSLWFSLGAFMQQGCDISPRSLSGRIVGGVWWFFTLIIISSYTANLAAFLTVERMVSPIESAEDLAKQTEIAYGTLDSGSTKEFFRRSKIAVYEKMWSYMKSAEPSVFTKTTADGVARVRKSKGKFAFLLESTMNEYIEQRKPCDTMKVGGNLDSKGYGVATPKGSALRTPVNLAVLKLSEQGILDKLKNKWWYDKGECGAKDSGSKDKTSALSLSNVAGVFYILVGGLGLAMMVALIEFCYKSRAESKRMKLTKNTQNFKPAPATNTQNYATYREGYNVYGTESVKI
Text: as §3, §4, §5, §6, §7

GluN1a/2A = molecular target: T4, GluN1a/2A (Homo sapiens, UniProt Q05586+Q12879); assay: Selectivity: whole-cell normalized peak current of NMDA receptor GluN1a/2A; conditions: 16 µM compound, HEK293t, −60 mV
T4 construct: expressed in transfected cells; host or cells: HEK293t cells
T4 sequence (Q12879 23-1464, other chains not shown): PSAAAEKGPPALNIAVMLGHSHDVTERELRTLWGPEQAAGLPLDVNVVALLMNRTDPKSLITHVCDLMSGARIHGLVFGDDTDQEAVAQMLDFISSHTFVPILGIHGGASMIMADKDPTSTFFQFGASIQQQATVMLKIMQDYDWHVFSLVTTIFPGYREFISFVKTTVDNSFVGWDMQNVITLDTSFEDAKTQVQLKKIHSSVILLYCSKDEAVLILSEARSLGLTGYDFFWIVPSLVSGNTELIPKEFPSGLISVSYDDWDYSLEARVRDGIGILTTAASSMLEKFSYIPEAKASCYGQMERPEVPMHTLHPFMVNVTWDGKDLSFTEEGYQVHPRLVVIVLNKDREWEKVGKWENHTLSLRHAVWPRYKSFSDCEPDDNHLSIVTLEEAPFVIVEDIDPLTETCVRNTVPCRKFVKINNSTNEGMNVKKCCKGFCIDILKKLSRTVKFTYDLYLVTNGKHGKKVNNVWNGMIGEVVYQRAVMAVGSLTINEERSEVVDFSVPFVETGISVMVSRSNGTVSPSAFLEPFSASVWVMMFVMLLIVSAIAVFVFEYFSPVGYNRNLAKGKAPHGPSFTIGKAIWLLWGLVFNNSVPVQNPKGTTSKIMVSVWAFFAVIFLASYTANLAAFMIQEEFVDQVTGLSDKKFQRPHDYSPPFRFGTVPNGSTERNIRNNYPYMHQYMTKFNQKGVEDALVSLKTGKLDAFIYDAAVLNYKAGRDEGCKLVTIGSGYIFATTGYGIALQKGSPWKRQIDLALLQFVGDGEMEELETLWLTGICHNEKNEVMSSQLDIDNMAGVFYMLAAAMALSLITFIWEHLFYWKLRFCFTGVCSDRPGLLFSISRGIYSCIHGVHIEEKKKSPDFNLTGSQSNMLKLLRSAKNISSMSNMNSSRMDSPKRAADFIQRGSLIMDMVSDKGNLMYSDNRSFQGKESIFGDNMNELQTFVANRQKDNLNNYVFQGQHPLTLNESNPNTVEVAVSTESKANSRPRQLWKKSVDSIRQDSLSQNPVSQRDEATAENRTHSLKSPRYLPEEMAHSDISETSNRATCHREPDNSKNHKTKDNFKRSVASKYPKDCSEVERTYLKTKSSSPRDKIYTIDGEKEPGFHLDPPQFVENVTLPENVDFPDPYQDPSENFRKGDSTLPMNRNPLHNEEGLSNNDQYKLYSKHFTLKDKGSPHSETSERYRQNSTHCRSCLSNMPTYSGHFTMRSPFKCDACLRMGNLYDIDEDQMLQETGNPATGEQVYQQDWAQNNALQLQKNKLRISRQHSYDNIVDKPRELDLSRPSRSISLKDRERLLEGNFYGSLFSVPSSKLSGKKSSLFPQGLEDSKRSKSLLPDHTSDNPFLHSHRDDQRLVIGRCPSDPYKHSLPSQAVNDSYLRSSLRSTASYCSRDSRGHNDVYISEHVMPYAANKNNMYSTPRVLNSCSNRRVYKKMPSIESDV
Protocol: as §1, §2

[1] = 16 µM compound co-applied with agonist, HEK293t, −60 mV, pH 7.4, 22 °C, mean ± SD, n = 10
[2] = 16 µM compound, mean ± SD, n = 10
[3] = 10 mM glutamate for 1 ms, with compound, mean ± SD
[4] = 10 mM glutamate for 500 ms, with compound, mean ± SD
[5] = concentration–response fit, read-out: Log IC50 (converted)
[6] = glutamate alone after the compound, mean ± SD, n = 10

Effect on normalized peak current (GluN1a/2B): statistically not significant | Amplitude (peak whole-cell current in presence of compound) (GluA2; [1]): 156 ± 7 pA | A/AI (amplitude ratio, glutamate alone / with compound) (GluA2; [2]): 8.11±0.41 | t deact (weighted deactivation time constant) (GluA2; [3]): 8.3 ± 0.3 ms | IC50 (GluA2; [5]): 3.02 µM | Amplitude, applying glutamate alone after compound (GluA2; [6]): 1231±85 pA | pIC50 (GluA2; inhibition of whole-cell peak current, concentration–response, Hill fit, read-out: IC50): 5.52 | Increase of deactivation time constant (τdeac) (GluA2; versus control): approximately 4 fold | Amplitude (peak whole-cell current in presence of compound) (GluA2/3; [1]): 73 ± 5 pA | A/AI (amplitude ratio, glutamate alone / with compound) (GluA2/3; [2]): 8.02±0.49 | t deact (weighted deactivation time constant) (GluA2/3; [3]): 8.1 ± 0.4 ms | IC50 (GluA2/3; [5]): 3.09 µM | Amplitude, applying glutamate alone after compound (GluA2/3; [6]): 562±28 pA | Increase of deactivation time constant (τdeac) (GluA2/3; versus control): approximately 4 fold | Effect on normalized peak current (GluN1a/2A): statistically not significant
SMILES: CSc1ccc(NC(=O)c2c(-c3c(Cl)cccc3Cl)noc2C)cc1 [CIC-1, 3-(2,6-dichlorophenyl)-5-methyl-N-(4-(methylthio)phenyl)isoxazole-4-carboxamide]
t des (weighted desensitization time constant) (GluA2; [4]): 0.6 ± 0.1 ms | t des (weighted desensitization time constant) (GluA2/3; [4]): 0.7 ± 0.2 ms
